Reference: patent publication US20260248800A1, “FERROPTOSIS INHIBITORS AND USES THEREOF” (UNIVERSITY OF OTTAWA, priority 2022, published 2026)
Read-outs that look alike come from different tables or passages of the source.

Legend:
[1] = MeOAMVN-initiated co-autoxidation of STY-BODIPY and egg PC liposomes (FENIX); format: biochemical; settings: for n (radical-trapping stoichiometry): MeOAMVN-initiated co-autoxidation of STY-BODIPY and egg PC liposomes
[2] = test system: Pfa-1 mouse embryonic fibroblasts (MEFs); experiment: cells; settings: Fibroblast
[3] = H-bond acidity (α2^H) of the RTA by 1H NMR; format: physicochemical; settings: estimated from the 1H NMR chemical shift difference of the amine proton in DMSO-d6 and benzene-d6
[4] = apparent inhibition rate constant, MeOAMVN-initiated autoxidation of egg PC liposomes, determined by absorbance (STY-BODIPY 10-20 μM, 565 nm)
[5] = 5 h, read-out: Pfa-1 MEF Ferroptosis EC50, RSL3-induced cell death (150 nM for 5 hours), AquaBluer
[6] = Table 6, from survival curve of RSL3 induced ferroptosis of pfa-1 MEFS
[7] = apparent inhibition rate constant, MeOAMVN-initiated autoxidation of egg PC liposomes, determined by fluorescence
[8] = predicted from log kinh^0, α2^H and β2^H=0.69 using Eq. 4 (too reactive to be determined directly)

| α2^H [3] | Structure (SMILES) | n (radical-trapping stoichiometry) [1] | EC50 [2, 5] [nM] | EC50 [2, 6] [nM] | further results |
| --- | --- | --- | --- | --- | --- |
| 0.58 | CCN(CC)c1ccc2c(c1)Oc1cc([N+](=O)[O-])ccc1N2 [Compound 18, N,N-diethyl-3-amine-7-nitrophenoxazine] | 2.4 ± 0.4 | 14 ± 2 | – | kinh^lip [1, 4]: (177 ± 37)^e 10^5 M^−1s^−1 |
| – | CC(C)(C)c1ccc2c(c1)Nc1ccc(S(=O)(=O)N3CCNCC3)cc1O2 [Compound 60, 2-tert-Butyl-7-(piperazin-1-ylsulfonyl)-phenoxazine] | – | 3 ± 0.2 | 3 ± 0.2 | – |
| 0.38 | Cc1c(C)c2c(c(C)c1O)CCC(C)(C)O2 [PMC, 2,2,5,7,8-Pentamethyl-6-chromanol, reference compound] | (2) | 360 ± 30 | – | kinh^lip [1, 7]: (29 ± 2) 10^5 M^−1s^−1; kinh^lip (predicted/estimated) ([1]; estimated from kinh^0 and effective β2^H of egg PC liposomes): 35000 M⁻¹ s⁻¹; kinh^lip ([1]; measured in MeOAMVN-initiated autoxidation of egg PC liposomes): 29000 M⁻¹ s⁻¹ |
| 0.42 | COc1ccc2c(c1)Oc1ccccc1N2 [Compound 39, 3-methoxyphenoxazine] | – | 12 | – | kinh^lip [1, 8]: 1490 ^f 10^5 M^−1s^−1; predicted increase in kinh^lip relative to PNX ([1]; predicted/estimated kinh^lip vs PNX): 6.7 fold |
| 0.55 | COc1ccc2c(c1)Oc1cc(C#N)ccc1N2 [Compound 22, 3-Methoxy-7-cyanophenoxazine] | 3.1 ± 0.3 | 42 ± 6 | – | kinh^lip [1, 4]: (133 ± 15)^e 10^5 M^−1s^−1 |
| 0.63 | O=Cc1ccc2c(c1)Oc1cc(C=O)ccc1N2 [Compound 13, 3,7-Diformylphenoxazine] | 3.2 ± 0.1 | 340 ± 49 | – | kinh^lip [1, 7]: (10 ± 1) 10^5 M^−1s^−1 |
| – | CC(C)(C)c1ccc2c(c1)Oc1cc(C(C)(C)C)ccc1N2 [Compound 34, 3,7-di-tert-butylphenoxazine] | – | 7.4 ± 0.1 | 7.4 ± 0.1 | kinh^lip [1, 8]: 1280 ^f 10^5 M^−1s^−1 |
| 0.45 | FC(F)(F)c1ccc2c(c1)Sc1ccccc1N2 [Compound 26, 3-trifluoromethylphenothiazine, reference compound] | 2.6 ± 0.1 | 41 ± 5 | – | kinh^lip [1, 7]: (9.8 ± 0.5) 10^5 M^−1s^−1 |
| – | CC(c1ccc2c(c1)Nc1ccccc1O2)S(=O)(=O)NCCN(C)C (stereo not drawn) [Compound 43, N-(2-(dimethylamino)ethyl)-1-(10H-phenoxazin-2-yl)ethanesulfonamide] | – | 15 ± 1 | 15 ± 1 | – |
| – | CC(c1ccc2c(c1)Nc1ccccc1O2)S(=O)(=O)N1CCN(C)CC1 (stereo not drawn) [Compound 47, 2-(1-((4-methylpiperazin-1-yl)sulfonyl)ethyl)-10H-phenoxazine] | – | 45 ± 6 | 45 ± 6 | – |
| – | CC(C)(C)c1ccc2c(c1)Nc1cc(C(C)(C)C)ccc1O2 [Compound 33, 2,8-di-tert-butylphenoxazine] | – | 7.2 ± 0.4 | 7.2 ± 0.4 | kinh^lip [1, 8]: 730 ^f 10^5 M^−1s^−1 |
| – | CC(c1ccc2c(c1)Nc1ccccc1O2)S(=O)(=O)N1CCNCC1 (stereo not drawn) [Compound 45, 2-(1-(piperazin-1-ylsulfonyl)ethyl)-10H-phenoxazine] | – | 13 ± 1 | 13 ± 1 | – |
| – | CCN(CC)S(=O)(=O)c1ccc2c(c1)Oc1ccccc1N2 [Compound 65, N,N-diethyl-3-sulfonamidephenoxazine] | – | 31 ± 1 | – | – |
| – | FC(F)(F)c1ccc2c(c1)Oc1ccccc1N2 [Compound 9, 3-trifluoromethylphenoxazine] | 3.0 ± 0.1 | 12 | 12 ± 1 | kinh^lip [1, 7]: (42 ± 2) 10^5 M^−1s^−1 |
| – | CN1CCN(S(=O)(=O)c2ccc3c(c2)Oc2ccc(C(C)(C)C)cc2N3)CC1 [Compound 61, 2-tert-Butyl-7-(4-methylpiperazin-1-ylsulfonyl)-phenoxazine] | – | 15 ± 1 | – | – |
| – | CC(c1ccc2c(c1)Nc1ccc(C(F)(F)F)cc1O2)S(=O)(=O)N1CCN(C)CC1 (stereo not drawn) [Compound 48, 2-(1-((4-methylpiperazin-1-yl)sulfonyl)ethyl)-7-(trifluoromethyl)-10H-phenoxazine] | – | 16 ± 2 | 16 ± 2 | – |
